Assay results published in patent US6403643B1, “Use of 2,5-dihydroxybenzenesulfonic derivatives for the normalization of endothelial function” (Laboratories del Dr. Esteve, S.A., priority 1997, dated 2002).

What was measured:
[1] = test system: aortas isolated from male rabbits; experiment: Relaxation of the contraction of isolated aorta maintained with 10^−6 M noradrenalin (in vitro); assay type: cell-based, rabbit; conditions: aorta contraction maintained with 10^−6 M noradrenalin; concentrations between 10^−4M and 10^−11M
Description: (§1) The studies were carried out by using the aortas isolated from male rabbits according to the techniques described by A. Quintana et al. (Europ. J. Pharmacol., 1978, 53, 113-116) and by the group from the University of Edinburgh (Pharmacological Experiments on Isolated Preparations, Edinburgh, Livingstone, 1970). The aortas isolated without the endothelium are prepared according to the technique described by R. Furchgott et al. (J. Cardiol. Pharmacol., 1984, 6, p. 336-p. 343).
1) Effect on the contraction of the aorta maintained with 10^−6 M noradrenalin.
Calcium dobesilate relaxes the contraction of noradrenalin in a way dependent on the concentration (between 10^−4M and 10^−11M). The maximum relaxation was 70%.

[2] = test system: aortas isolated from male rabbits; experiment: Effect on the basal tension in aorta arteries with and without endothelium (basal tension 2 grams); assay type: cell-based, rabbit; conditions: concentrations between 10^−8M and 10^−4
Description: as §1
2) Effect on the basal tension in the aorta arteries with and without endothelium (basal tension=2 grams).
Calcium dobesilate at concentrations between 10^−8M and 10^−4 relaxes, in a dose-dependent way, the aortas subjected to a basal tension of 2 grams. The maximum relaxation was 44% for the arteries with endothelium and 48% for the arteries without endothelium.

[3] = test system: aortas isolated from male rabbits; experiment: Effect on the noradrenalin concentration/effect curve in aorta with and without endothelium; assay type: cell-based, rabbit; conditions: concentration of 10^−6M
Description: as §1
3) Effect on the noradrenalin concentration/effect curve.
In arteries with the intact endothelium, calcium dobesilate at a concentration of 10^−6M inhibits a 44% the contraction obtained with 10 ^−4M noradrenalin.

[4] = test system: aortas originating from the treated rabbits; experiment: Protective effect on the endothelium: relaxation of noradrenalin-contracted aortas from rabbits with vitamin D2 overdose; assay type: in vivo, rabbit; conditions: 10^−6M noradrenalin, calcium dobesilate between 10^−11M and 10^−5M on the artery
Description: The protective effect on the endothelium with calcium dobesilate was studied in the rabbit.
To do this, the arterial endothelium in rabbits is damaged by a daily treatment with an overdose of vitamin D2 and three groups of animals are used in the study:
II—Hypervitaminosis D2+50 mg/kg/day calcium dobesilate.
The studies are carried out with arteries originating from the treated rabbits by measuring the effect on the contraction of the aorta maintained with 10^−6M noradrenalin.
Calcium dobesilate (between 10^−11M and 10^−5M) relaxes in a dose-dependent way the contraction due to noradrenalin. The least relaxation corresponds to the hypervitaminosis D2 group (group I), whereas the maximum relaxation is obtained with the aortas of the group treated with calcium dobesilate (group II).
The maximum relaxation obtained for each group was as follows: […]

endothelium = experiment: Endothelium-dependent vascular relaxation in normal animals and animals with vitamin D2-induced vascular aging (background statement); conditions: normal animals and animals with vascular aging produced by high doses of vitamin D2
From the text: This effect is observed both in normal animals and in those in which vascular aging has been produced experimentally by means of the administration of high doses of vitamin D2. This activity of calcium dobesilate, of ethamsylate and of persilate may be reflected in man by effects which are therapeutically useful. […] Rosen, “The Pharmacology of Sexual Function and Dysfunction”, edited by J. Bancroft, Elsevier Sc., 1995, cages 277-287). The normalization of the endothelial function obtained with calcium dobesilate, ethamsylate and persilate can represent an entirely novel therapeutic approach to the problem of impotence (I. Saenz de Tejada et al., N. Engl. J. Med., 1989, 320, 1025-1030), both in patients with vascular disorders with various causes (diabetes, arteriosclerosis, and the like) and in patients where only a functional disorder can be detected.

Calcium 2,5-dihydroxybenzenesulfonate [calcium dobesilate]
maximum relaxation of the contraction of noradrenalin [1]: 70% | maximum relaxation of basal tension ([2]; arteries with endothelium): 44% | maximum relaxation of basal tension ([2]; arteries without endothelium): 48% | inhibition of the contraction obtained with 10^−4M noradrenalin ([3]; arteries with the intact endothelium): 44% | effect on the noradrenalin concentration/effect curve ([3]; arteries without endothelium): no modification of the curve | maximum relaxation of the contraction due to noradrenalin ([4]; aortas of Group I (hypervitaminosis D2)): 52% | maximum relaxation of the contraction due to noradrenalin ([4]; aortas of Group II (hypervitaminosis D2 + 50 mg/kg/day calcium dobesilate)): 100% | maximum relaxation of the contraction due to noradrenalin ([4]; aortas of Group O (control rabbits)): 69% | effects on the endothelium (endothelium): facilitating endothelium-dependent vascular relaxation

CCNCC.CCNCC.O=S(=O)(O)c1cc(O)c(S(=O)(=O)O)cc1O [persilate, Bis(diethylamine) 2,5-dihydroxybenzene-1,4-disulfonate]
effects on the endothelium (endothelium): facilitating endothelium-dependent vascular relaxation

CCNCC.O=S(=O)(O)c1cc(O)ccc1O [ethamsylate, Diethylamine 2,5-dihydroxybenzenesulfonate]
effects on the endothelium (endothelium): facilitating endothelium-dependent vascular relaxation
